Five compounds from patent US20230165921A1, “USE OF DANDELION AND MONOMER COMPOUNDS THEREOF FOR KILLING MITES” (SMILEBIOTEK ZHUHAI LIMITED, priority 2020, published 2023) can be followed below.

Structures are written as SMILES. “Also recorded” adds a separate entry of the source.

For assay [1], the system named is Demodex mites. In words: Preliminary in-vitro screening of monomer compounds for effect on survival time of Demodex mites. The conditions noted are these: 20° C., humidity 96%; for Survival time: in vitro, 35 µL monomer compound solution in 10% DMSO, mean ± SD; for in-vitro survival time of Demodex mites compared with the negative control group receiving 10% DMSO solution: in words. Also noted: species or system D. folliculorum. On the procedure: The powders of the monomer compounds shown in Table 2 were separately dissolved in dimethyl sulfoxide (DMSO), and then diluted with sterilized double-distilled water to make the final concentration of DMSO 10%, which could not shorten the survival time of Demodex mites as per a controlled study. The negative control group received DMSO mixed with sterilized water at a final concentration of 10%.
As in Example 1, 35 µL of each solution was added to a glass slide, and the survival of the mites was observed under an optical microscope every 2 hours. During the experiment, the Demodex mites were observed by two skilled operators separately for the activities (bodies, limbs and the like) through the microscope to determine whether they were dead or not. If the two operators gave different results, the survival status was determined independently by a third skilled operator. The in-vitro culture was conducted in a climatic chamber at a temperature of 20° C. and a humidity of 96%. During the observation, the glass slides were transported in a wet box to ensure the high humidity.
In this experiment, statistical analysis was conducted using SPSS22.0 statistical software, normality test was conducted using Shapiro-Wilk test, and homogeneity of variance test was conducted using Bartlett’s test.
Effects of monomer compounds of traditional Chinese medicine on survival time of D. folliculorum The in-vitro culture of the Demodex mites was conducted in an environment at a humidity of 96% and a temperature of 20° C. The survival of the Demodex mites was observed dynamically and the survival time was recorded.

Assay [2] deals with Demodex mites. In words: In-vitro culture of Demodex mites with traditional Chinese medicine decoctions: survival time. The conditions noted are these: 20° C., humidity 96%. Also noted: species or system D. folliculorum. On the procedure: The detection of Demodex mites was performed according to the conventional method of eyelash microscopy (12,20). 3 eyelashes were collected from each eyelid, with a total of 12 eyelashes. The collected eyelashes were immediately placed on glass slides with three eyelashes on each glass slide, and the glass slides were examined under a common optical microscope for observation. Demodex mites in all periods were counted and classified according to morphology (specific standard: D. brevis with a head-to-body ratio of 1:1, and D. folliculorum with a head-to-body ratio of 1:3 to 1:4). […]
On the basis of the above detection of Demodex mites, 35 µL of the solutions was separately added to the slides, and the survival of the mites was observed every 2 hours. […] If the two operators gave different results, the survival status was determined independently by a third skilled operator. […]
60 g of dried ready-to-use forms was weighed using an electronic balance, and soaked in water with an amount of 10 times (600 mL) in a marmite overnight. […]
The in-vitro culture of the Demodex mites was conducted in an environment at a humidity of 96% and a temperature of 20° C. The survival of the Demodex mites was observed dynamically and the survival time was recorded.

As for `O=C(O)/C=C/c1ccc(O)c(O)c1` [Caffeic acid], in the assay with Demodex mites [1], the “Survival time” value stood at 66.45 ± 24.24 h.

For `COc1ccc(-c2cc(=O)c3c(O)cc(O)cc3o2)cc1O` [Diosmetin], the “in-vitro survival time of Demodex mites compared with the negative control group receiving 10% DMSO solution” value in the assay with Demodex mites [1] is on record as “significantly shorter; also recorded: can significantly shorten the survival time of the mites”.

With `CC1=CCC(O)(C(C)C)CC1` (stereo not shown) [T4O, terpinen-4-ol], the “Survival time” value with Demodex mites [2] (in vitro, 35 µL solution on slide, decoction 60 g in 100 mL, TTO and T4O 10% in sterilized water, mean ± SD) was 40.50 ± 13.12 h. Further, the “in-vitro survival time of Demodex mites compared with the negative control (sterilized water)” value with Demodex mites [2] (in words) was “did not show significant differences”.

Turning to `C=C1CC[C@]2(C)CC[C@]3(C)[C@H](CC[C@@H]4[C@@]5(C)CC[C@H](OC(C)=O)C(C)(C)[C@@H]5CC[C@]43C)[C@H]2[C@@H]1C` [Taraxasterol acetate], in the assay with Demodex mites [1], the “Survival time” value amounted to 37.91 ± 20.96 h and the “in-vitro survival time of Demodex mites compared with the negative control group receiving 10% DMSO solution” value was “significantly shorter; also recorded: can significantly shorten the survival time of the mites”. As for `CC1(C)CC[C@]2(C)CC=C3[C@]4(C)CC[C@H]5C(C)(C)[C@@H](O)CC[C@]5(C)[C@H]4CC[C@@]3(C)[C@@H]2C1` [Taraxerol], in the assay on Demodex mites [1], the “in-vitro survival time of Demodex mites compared with the negative control group receiving 10% DMSO solution” value is reported as “significantly shorter; also recorded: can significantly shorten the survival time of the mites”.
